Data published in US10117871B2, “3-hydroxypyrimidine-2,4-dione-5-carboxamides as potent inhibitors of HIV” (Regents of the University of Minnesota, priority 2015, dated 2018).
Like-named read-outs stand apart in the source and are kept apart here.

What was measured:
[1] = test system: HIV-1 clone 4736-2 (N155H); format: cell-based; details: EC50(mutant)/EC50(WT)
HIV-1IIIB = test: HIV-1 cytoprotection (CPE reduction) antiviral assay; format: cell-based; details: for inhibition at 10 µM: read-out: CPE reduction %
Procedure: (§1) The antiviral activity of newly synthesized analogues of chemotype 7 was evaluated against HIV-1IIIB in CEM-SS cells using an assay based on viral cytopathic effect (CPE). In this assay, the reduction of CPE was used to indicate the antiviral activity of a compound.
Briefly virus and cells were mixed in the presence of test compound and incubated for 6 days. […] Each assay plate contained cell control wells (cells only), virus control wells (cells plus virus), compound toxicity control wells (cells plus compound only), compound colorimetric control wells (compound only) as well as experimental wells (compound plus cells plus virus). Cytoprotection and compound cytotoxicity were assessed by MTS (CellTiter® 96 Reagent, Promega, Madison Wis.) and the EC50 (concentration inhibiting virus replication by 50%), CC50 (concentration resulting in 50% cell death) and a calculated TI (therapeutic index CC50/EC50) were provided. Each assay included AZT as a positive control.

CEM-SS cells = test: Compound cytotoxicity (MTS) in the HIV cytoprotection assay; format: cell-based; details: for CC50: Concentration resulting in 50% cell death; for Cell viability %: 10 μM, CEM-SS cells
Procedure: as §1
Briefly virus and cells were mixed in the presence of test compound and incubated for 6 days. […] Each assay plate contained cell control wells (cells only), virus control wells (cells plus virus), compound toxicity control wells (cells plus compound only), compound colorimetric control wells (compound only) as well as experimental wells (compound plus cells plus virus). […] Each assay included AZT as a positive control.

[2] = test system: HIV-1 clone 8070-1 (G140S/Y143H/Q148H); format: cell-based; details: EC50(mutant)/EC50(WT)
[3] = test system: HIV-1 clone 1556-1 (Y143C); format: cell-based; details: EC50(mutant)/EC50(WT)
[4] = test system: HIV-1 clone 8070-2 (G140S/Q148H); format: cell-based; details: EC50(mutant)/EC50(WT)
HIV-1 integrase = target: T1, HIV-1 integrase (Human immunodeficiency virus type 1 group M subtype B, UniProt P04585); test: HIV-1 integrase strand transfer (INST) assay; format: biochemical
T1 construct: HIV integrase was expressed and purified as previously reported; made in house; host or cells: Escherichia coli
Procedure: HIV integrase was expressed and purified as previously reported.^43 Inhibition assays were performed using a modified protocol of a reported method.^43 Briefly, 2.1 μL of compound suspended in DMSO was placed in duplicate into a Black 96 well non-binding plate (coming 3991). Compounds were plated in duplicate to a final concentration of 0.13-100 μM. To each well of the plate 186.9 μL of reaction mixture without DNA substrate was added (10 mM HEPES pH 7.5, 10% glycerol w/v, 10 mM MnCl2, 1 mM DTT, 1 μM integrase). The enzyme was incubated with inhibitor for 10 min at 25° C. after which the reaction was initiated by the addition of 21 μL of 500 nM oligo (5′ biotin […] annealed with […] 3′ Cy5). Reactions were incubated at 37° C. for 30 min and then quenched by the addition of 5.2 μL 500 mM EDTA. Each reaction was moved (200 μL) to a MultiScreen HTS PCR plate (Millipore MSSLBPC10) containing 20 μL streptavidin agarose beads (Life Technologies S951) and incubated with shaking for 30 min. A vacuum manifold was used to remove the reaction mixture and the beads were similarly washed 3 times with wash buffer (0.05% SDS, 1 mM EDTA in PBS). The plates were further washed 3 times with 200 μL 50 mM NaOH to denature DNA not covalently linked to the biotin modification. For each denaturation step the plate was incubated with shaking at 25° C. for 5 min and the NaOH was removed by centrifugation at 1000 g for 1 min. The reaction products were eluted from the beads by the addition of 150 μL formamide. The plate was incubated at 25° C. for 10 min and read directly at 635/675 in a SpectraMax i3 plate reader (Molecular Devices). Expression and purification of the recombinant IN in Escherichia coli were performed as previously reported^39, 44 with addition of 10% glycerol to all buffers. Preparation of oligonucleotide substrates has been described.^45 Integrase reactions were performed in 10 μL with 400 nM of recombinant IN, 20 nM of 5′-end [^32P]-labeled oligonucleotide substrate and inhibitors at various concentrations. Solutions of 10% DMSO without inhibitors were used as controls. Reactions were incubated at 37° C. (60 minutes) in buffer containing 50 mM MOPS, pH 7.2, 7.5 mM MgCl2, and 14.3 mM 2-mercaptoethanol. Reactions were stopped by addition of 10 μL of loading dye (10 mM EDTA, 98% deionized formamide, 0.025% xylene cyanol and 0.025% bromophenol blue). Reactions were then subjected to electrophoresis in 20% polyacrylamide-7 M urea gels. Gels were dried and reaction products were visualized and quantitated with a Typhoon 8600 (GE Healthcare, Little Chalfont, Buckinghamshire, UK). Densitometric analyses were performed using ImageQuant from Molecular Dynamics Inc. The concentrations at which enzyme activity was reduced by 50% (IC50) were determined using “Prism” software (GraphPad Software, San Diego, Calif.) for nonlinear regression to fit dose-response data to logistic curve models.

[5] = Human immunodeficiency virus 1, 10 μM, HIV-1IIIB in CEM-SS cells
[6] = Human immunodeficiency virus 1, CEM-SS

SMILES	CC50 (CEM-SS cells)	IC50 (HIV-1 integrase; read-out: INST IC50)	inhibition at 10 µM (HIV-1IIIB; [5])	Cell viability % (CEM-SS cells)	EC50 (HIV-1IIIB; Human immunodeficiency virus 1)	other results
Cc1cn([C@H]2C[C@H](N=[N+]=[N-])[C@@H](CO)O2)c(=O)[nH]c1=O [AZT, reference compound]	> 10000 nM					Fold-resistance [1]: 0.7; EC50 (HIV-1IIIB; Concentration inhibiting virus replication by 50%, dose response, read-out: EC50): 80 nM; Fold-resistance [2]: 0.9; Fold-resistance [3]: 1.4; Fold-resistance [4]: 0.5
CCNc1[nH]c(=O)n(O)c(=O)c1C(=O)NCc1cccc(F)c1 [Compound 7-xv, N-(3-Fluorobenzyl)-1-(hydroxy)-4-(ethylamino)-1,2,3,6-tetrahydro-2,6-dioxopyrimidine-5-carboxamide]		68 ± 7 nM	100%	90%		
CCNc1[nH]c(=O)n(O)c(=O)c1C(=O)NCc1cc(F)cc(F)c1 [Compound 7-xix, N-(3,5-Difluorobenzyl)-1-(hydroxy)-4-(ethylamino)-1,2,3,6-tetrahydro-2,6-dioxopyrimidine-5-carboxamide]		230 ± 62 nM	100%	100%		
CCNc1[nH]c(=O)n(O)c(=O)c1C(=O)NCc1cccc(Cl)c1F [Compound 7-xxiii, N-(3-Chloro-2-fluorobenzyl)-1-(hydroxy)-4-(ethylamino)-1,2,3,6-tetrahydro-2,6-dioxopyrimidine-5-carboxamide]	18000 nM	21 ± 2 nM	100%	100%	15 nM	Fold-resistance [1]: 2.4; Fold-resistance [2]: 6.3; Fold-resistance [3]: 0.4; Fold-resistance [4]: 13
Nc1[nH]c(=O)n(O)c(=O)c1C(=O)NCc1ccccc1 [Compound 7-xi, 4-Amino-N-benzyl-1-(hydroxy)-1,2,3,6-tetrahydro-2,6-dioxopyrimidine-5-carboxamide]		900 ± 290 nM	99%	100%		
CNc1[nH]c(=O)n(O)c(=O)c1C(=O)NCc1cccc(Cl)c1F [Compound 7-xiv, N-(3-Chloro-2-fluorobenzyl)-1-(hydroxy)-1,2,3,6-tetrahydro-4-(methylamino)-2,6-dioxopyrimidine-5-carboxamide]		110 ± 33 nM	100%	100%		
O=C(NCc1ccccc1)c1c(NC2CC2)[nH]c(=O)n(O)c1=O [Compound 7-ix, N-Benzyl-1-(hydroxy)-4-(cyclopropylamino)-1,2,3,6-tetrahydro-2,6-dioxopyrimidine-5-carboxamide]		209 ± 77 nM	98%	90%		
CCNc1[nH]c(=O)n(O)c(=O)c1C(=O)NCCCl [Compound 7-xxvii, 1-(Hydroxy)-N-(2-chloroethyl)-4-(ethylamino)-1,2,3,6-tetrahydro-2,6-dioxopyrimidine-5-carboxamide]				100%		inhibition of ST in the ST assay, in words (HIV-1 integrase): none; inhibition at 10 µM (HIV-1IIIB; [6]): 5.1%; antiviral activity, in words (HIV-1IIIB; single concentration 10 μM, CPE assay): completely abrogated antiviral activity
CCNc1[nH]c(=O)n(O)c(=O)c1C(=O)NCc1ccc(F)cc1 [Compound 7-xvi, N-(4-Fluorobenzyl)-1-(hydroxy)-4-(ethylamino)-1,2,3,6-tetrahydro-2,6-dioxopyrimidine-5-carboxamide]	19000 nM	49 ± 4 nM		99%	33 nM	IC50 (HIV-1 integrase; read-out: IC50 (ST)): 21 to 77 nM; inhibition at 10 µM (HIV-1IIIB; [6]): 100%; EC50 (HIV-1IIIB; Human immunodeficiency virus 1, summary of Table 2, read-out: EC50): 15 to 61 nM
CCNc1[nH]c(=O)n(O)c(=O)c1C(=O)NCc1ccc(C)c(F)c1 [Compound 7-xxiv, N-(3-Fluoro-4-methylbenzyl)-1-(hydroxy)-4-(ethylamino)-1,2,3,6-tetrahydro-2,6-dioxopyrimidine-5-carboxamide]	20000 nM	51 ± 13 nM	100%	100%	150 nM	
